This note sets out measurements from patent US20170009228A1, “BIOLOGICAL MATERIALS AND THERAPEUTIC USES THEREOF” (IMPERIAL INNOVATIONS LIMITED, priority 2014, published 2017).

In assay [1] the test system is synovial membranes from RA patients. The experiment in a line: Cytokine synthesis in RA synovial membrane cells stimulated with FBG. Conditions: FBG 1.0-0.01 μM, 24 h. In kind it is cell-based, human. From the text: (§1) RA membrane cells (representing a mixed population of all synovial cell types) were isolated from synovial membranes obtained from patients undergoing joint replacement surgery as previously described (Brennan (1989)). RA synovial fibroblasts were isolated from the mixed population of RA membrane cells as previously described (Brennan (1989)). The study was approved by the local Trust ethics committee (Riverside NHS Research Committee), and waste tissue (synovium after joint replacement surgery) was obtained only after receiving signed informed consent from the patient and anonymyzing the tissue to protect patient identity.
Immediately after isolation, RA membrane cells and macrophages were cultured at 1×10^5 cells/well in RPMI 1640 containing 10% (v/v) FBS and 100 U/ml (Units/ml) penicillin/streptomycin in 96-well tissue culture plates for 24 hours before stimulation. […]
(§2) Supernatants were subsequently examined for the presence of the cytokines TNF-α, IL-6, and IL-8 by enzyme-linked immunosorbent assay (ELISA) according to the manufacturer's instructions. Absorbance was read on a spectrophotometric ELISA plate reader (Labsystems Multiscan Biochromic, Vantaa, Finland) and analyzed using the Ascent software program (Thermo Labsystems, Altrincham, UK).

The subject of assay [2] is MyD88. The experiment in a line: FBG stimulation of RA synovial fibroblasts infected with adenovirus expressing dominant negative MyD88. The following applies: 1 μM FBG. It counts as cell-based, human.
Description: Recombinant, replication-deficient adenoviral vectors encoding wild type MyD88 (AdMyD88wt), dominant-negative forms of MyD88 (AdMyD88dn) and the GFP control (AdGFP) were constructed in-house. A description of the synthesis of these viruses is in Andreakos (2004). All viruses used in this study are E1/E3 deleted, belong to the Ad5 serotype. Viruses were propagated in 293 human embryonic kidney cells, purified by ultracentrifugation through two cesium chloride gradients, and viral titers determined by plaque assay as previously described (Sacre (2007)).
For adenoviral gene transfer experiments, human RA synovial fibroblasts were incubated with adenoviral vectors at a multiplicity of infection of 100, washed after 2 hours, cultured in complete medium for 24 hours, then stimulated for 24 hours, after which time supernatants were collected.
as §2

The test system of assay [3] is MyD88. The assay is described as follows: Cytokine synthesis in embryonic fibroblasts from MyD88 deficient mice. In kind it is cell-based. The procedure: MEFs express high levels of mRNA of all 9 murine TLRs and are specifically and highly responsive to TLR ligand activation. […] MEFs were isolated from d13 embryos harvested from age-matched, pregnant female wild type, TLR2, TLR4 and null mice (as described in Todaro (1963)). Fibroblasts were cultured at 2×10^4 cells/well in DMEM containing 10% (v/v) FBS and 100 U/ml penicillin/streptomycin in 96-well tissue culture plates for 24 hours before stimulation.
(§3) Cells were incubated for 24 hours at 37° C. with the indicated doses of tenascin-C and recombinant tenascin-C fragments (1.0 μM-1.0 nM). Cells were also stimulated where indicated with LPS (1 ng/ml for human macrophages, 10 ng/ml for human fibroblasts, RA membrane cells and HEKs, 100 ng/ml for MEFS and BMDMs and 10 ng/ml for HEKS), PAM3 (10 ng/ml for human macrophages, human fibroblasts, and HEKs, 100 ng/ml for MEFs and BMDMs), murine IL-1 (5 ng/ml for MEFS) and murine TNF-α (100 ng/ml for MEFS). Unless specifically stated otherwise rough LPS was used for in vitro studies.
as §2

The next assay concerns RA synovial fibroblasts. The experiment in a line: Cytokine synthesis in RA synovial fibroblasts stimulated with tenascin-C, FBG or LPS. Conditions: RA synovial fibroblasts, 24 h. In kind it is cell-based, human.
Description: as §1
Immediately after isolation, RA membrane cells and macrophages were cultured at 1×10^5 cells/well in RPMI 1640 containing 10% (v/v) FBS and 100 U/ml (Units/ml) penicillin/streptomycin in 96-well tissue culture plates for 24 hours before stimulation. Synovial fibroblasts (used only at either passage number 2 or 3) were cultured at 1×10^4 cells/well in DMEM containing 10% (v/v) FBS and 100 U/ml penicillin/streptomycin in 96-well tissue culture plates for 24 hours before stimulation.
as §3, §2

The next assay relates to TLR2 and TLR4 null mice. The assay is described as follows: Intra-articular injection of FBG in TLR2 and TLR4 null mice. In kind it is in vivo. The following applies: 1 μg FBG, 3 days. How it is done: Representative sections of the knee joint of TLR2 (a) and TLR4 (b) null mice 3 days after intra-articular injection of 1 μg FBG. Sections are stained with hemotoxylin and eosin. Magnification ×10 (n=5 mice per genotype). (c) Quantification of joint inflammation, bone erosion, cartilage surface erosion and chondrocyte death in the knee joints of TLR2 (white bars) and TLR4 (black bars) null mice 3 days after intra-articular injection of 1 μg FBG. Data represent the mean+/−SD (n=5 per genotype).
Homozygous TLR2 and TLR4 deficient mice on a C57BL/6 background (an inbred strain of mice with a black coat) were obtained from B&K Universal (Hull, UK) Hoshino (1999) and Takeuchi (1999). Homozygous MyD88 deficient mice on a C57BL/6 background were provided by the Sanger Institute (Cambridge, UK). Age matched congenic inbred wild type C57B/L6 mice were obtained from Charles River (Margate, UK). For isolation of mouse embryo fibroblasts one female aged 8-10 weeks was mated with two males aged 8-10 weeks. For isolation of bone marrow derived macrophages mice were female and between 10-12 weeks of age at the time of experimentation.
Coronal tissue sections (4 μm) were cut at 7 depths throughout the joint; 80 μm apart and stained with hematoxylin and eosin or Safranin-O to assess joint pathology. Histopathologic changes were scored using the following parameters as described in Van Lent (2006). […]

For “FBG: recombinant fibrinogen-like globe, 227 amino acid globular domain at the C terminal of tenascin-C”, the “synthesis of IL-6, IL-8 and TNF-α” value in assay [1] was “further enhanced”. Besides, in the assay on MyD88 [2], the “FBG induction of IL-6” value was “abolished”. Besides, in the assay on MyD88 [3] (MEFs from MyD88 deficient mice, 24 h), the cytokine synthesis entry is “does not stimulate cytokine synthesis”. Moreover, the “responsiveness after re-transfection of wild type MyD88” value with MyD88 [3] (MyD88 deficient MEFs, data not shown) is reported as “restored the responsiveness”. Further, in the assay on RA synovial fibroblasts, the IL-6 synthesis entry is listed as “to an equal extent to full-length tenascin-C” and the IL-8 synthesis entry is “did not induce”. For the same substance, in the assay on TLR2 and TLR4 null mice (TLR2 null mice), the joint inflammation result is listed as “able to induce joint inflammation”. In addition, the joint inflammation result in the assay on TLR2 and TLR4 null mice (TLR4 null mice) is reported as “not in TLR4 null mice”.
